In brackets after ≈: the same amount, converted by molar mass. Numbered stars: 1 amine (or outer) side, 2 acyl side, 3 side chain; on linkers, the order of the positions; unused ones are H or OH. Bridge positions count the residues as written; N and C are the ends. Square brackets hold non-standard residues; d marks the D form. Peptide text beside a SMILES is read from it. * marks the point of attachment. pTerphenylCO(4''-OnC5H11) = CCCCCOc1ccc(-c2ccc(-c3ccc(C(=O)*)cc3)cc2)cc1; Orn(4R-OH,5R-OH) = O=C([C@H](C[C@@H](O)[C@@H](O)N[*:3])N[*:1])[*:2]; hTyr(3S-OH,4S-OH) = N[C@H](C(=O)O)[C@H](O)[C@@H](O)c1ccc(O)cc1; Pro(3S-OH,4S-Me) = C[C@H]1CN[C@H](C(=O)O)[C@H]1O; Gln(3R-OH) = NC(=O)C[C@@H](O)[C@H](N)C(=O)O; X1 = CCCCCCCCCCCCC[C@H](CC(=O)[*:1])O[*:2]; Pro(3S-OH) = O=C(O)[C@H]1NCC[C@@H]1O; d(aThr) = C[C@@H](O)[C@@H](N)C(=O)O; Hyp = O=C(O)[C@@H]1C[C@@H](O)CN1; Orn = NCCC[C@H](N)C(=O)O
How the values were obtained:
Candida albicans [1] = test: In vitro antifungal activity against Candida albicans CY1002; format: functional, organism-based
Candida albicans [2] = test: In vitro antifungal activity against Candida albicans CY1002 using 80 percent serum; format: functional, organism-based
Mus musculus [3] = test: In vivo efficacy against Aspergillus fumigatus CF1083 1E4 conidia/g for pulmonary aspergillosis in mice after iv treatment on day 14; format: functional; conditions: 336 h
Mus musculus [4] = test: In vivo efficacy against Candida albicans CY1002 5E6 cells for systemic candidiasis in mice after iv treatment on day 7; format: functional; conditions: CY1002 5E6, iv, 168 h
Mus musculus [5] = species on record: Mus musculus; test: Hepatotoxicity using inclusion-body formation test in hepatocytes of mice; format: functional, Hepatocyte
Beta-1,3-glucan synthase = Beta-1,3-glucan synthase (Candida albicans, UniProt O13428); test: In vitro inhibitory activity against Beta glucan synthase
Aspergillus fumigatus = test: Antifungal activity against Aspergillus fumigatus MTU06002; format: functional
Pichia kudriavzevii = test: Antifungal activity against Candida krusei ATCC 20579; format: functional
Candida albicans [6] = test: Antifungal activity against Candida albicans KB fluconazole resistant strain.; format: functional
Candida albicans [7] = test: Antifungal activity against Candida albicans ATCC 48130; format: functional
Candida tropicalis = test: Antifungal activity against Candida tropicalis ATCC 13803; format: functional
Nakaseomyces glabratus = test: Antifungal activity against Candida glabrata ATCC 2001; format: functional
Lomentospora prolificans = test: Antifungal activity against Scedosporium prolificans ATCC 20054; format: functional
Scedosporium boydii = test: Antifungal activity against Scedosporium […] IFM40731N.; format: functional

Sequence of Beta-1,3-glucan synthase (O13428 whole entry): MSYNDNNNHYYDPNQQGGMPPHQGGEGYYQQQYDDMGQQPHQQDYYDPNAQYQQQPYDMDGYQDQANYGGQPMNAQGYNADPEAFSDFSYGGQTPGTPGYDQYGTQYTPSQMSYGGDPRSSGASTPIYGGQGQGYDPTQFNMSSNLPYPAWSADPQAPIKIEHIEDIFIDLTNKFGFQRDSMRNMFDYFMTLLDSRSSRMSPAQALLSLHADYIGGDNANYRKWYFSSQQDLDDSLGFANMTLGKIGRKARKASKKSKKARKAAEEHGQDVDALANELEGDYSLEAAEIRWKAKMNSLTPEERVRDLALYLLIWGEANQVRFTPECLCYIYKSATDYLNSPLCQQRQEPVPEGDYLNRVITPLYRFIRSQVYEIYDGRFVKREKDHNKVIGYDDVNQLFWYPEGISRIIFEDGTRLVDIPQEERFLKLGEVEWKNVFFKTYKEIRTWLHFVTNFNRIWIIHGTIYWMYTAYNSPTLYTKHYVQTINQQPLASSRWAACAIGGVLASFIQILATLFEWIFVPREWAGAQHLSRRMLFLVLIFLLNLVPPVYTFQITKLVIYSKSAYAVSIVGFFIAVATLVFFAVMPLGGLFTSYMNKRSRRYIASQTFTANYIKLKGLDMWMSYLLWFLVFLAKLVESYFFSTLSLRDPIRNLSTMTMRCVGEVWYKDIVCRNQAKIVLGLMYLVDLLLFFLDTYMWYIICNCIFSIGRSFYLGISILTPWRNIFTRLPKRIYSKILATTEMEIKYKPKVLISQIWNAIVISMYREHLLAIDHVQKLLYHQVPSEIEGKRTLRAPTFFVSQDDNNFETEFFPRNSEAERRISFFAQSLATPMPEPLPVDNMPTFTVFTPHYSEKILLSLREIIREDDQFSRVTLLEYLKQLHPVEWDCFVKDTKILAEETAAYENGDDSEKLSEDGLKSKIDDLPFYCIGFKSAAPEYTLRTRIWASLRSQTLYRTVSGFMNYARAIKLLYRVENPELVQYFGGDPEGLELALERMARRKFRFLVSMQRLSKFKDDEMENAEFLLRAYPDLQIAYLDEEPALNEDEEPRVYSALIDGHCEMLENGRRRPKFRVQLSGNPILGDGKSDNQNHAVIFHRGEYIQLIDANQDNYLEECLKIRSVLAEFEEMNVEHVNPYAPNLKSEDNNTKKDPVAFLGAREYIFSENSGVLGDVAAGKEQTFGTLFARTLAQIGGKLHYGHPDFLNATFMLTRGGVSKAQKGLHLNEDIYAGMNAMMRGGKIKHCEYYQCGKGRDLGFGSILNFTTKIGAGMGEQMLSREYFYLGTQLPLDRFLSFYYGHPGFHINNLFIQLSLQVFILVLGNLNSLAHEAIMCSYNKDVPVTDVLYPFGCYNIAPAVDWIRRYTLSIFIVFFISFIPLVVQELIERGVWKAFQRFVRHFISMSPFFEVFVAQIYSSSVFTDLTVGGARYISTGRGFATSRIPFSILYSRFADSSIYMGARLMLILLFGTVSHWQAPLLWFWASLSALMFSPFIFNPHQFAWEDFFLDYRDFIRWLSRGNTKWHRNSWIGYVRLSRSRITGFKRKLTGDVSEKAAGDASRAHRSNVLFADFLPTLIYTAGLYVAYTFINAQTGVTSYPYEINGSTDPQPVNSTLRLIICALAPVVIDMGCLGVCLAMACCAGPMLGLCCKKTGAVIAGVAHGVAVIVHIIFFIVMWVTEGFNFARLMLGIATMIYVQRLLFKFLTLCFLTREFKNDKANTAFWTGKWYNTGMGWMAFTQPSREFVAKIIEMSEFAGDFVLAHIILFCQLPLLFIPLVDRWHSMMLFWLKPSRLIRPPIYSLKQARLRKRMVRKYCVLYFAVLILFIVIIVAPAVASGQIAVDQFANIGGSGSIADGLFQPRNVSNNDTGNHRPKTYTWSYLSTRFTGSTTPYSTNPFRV

Row | SMILES | IC50 (Candida albicans [1]) [µg/mL] | IC50 (Candida albicans [2]) [µg/mL] | ED50 (Mus musculus [3]) [mg/kg] | ED50 (Mus musculus [4]) [mg/kg] | Observed at (Mus musculus [5]) [µg/mL] | IC50 (Beta-1,3-glucan synthase) [nM] | MIC (Aspergillus fumigatus) [µg/mL] | MIC (Pichia kudriavzevii) [µg/mL] | MIC (Candida albicans [6]) [µg/mL] | MIC (Candida albicans [7]) [µg/mL] | MIC (Candida tropicalis) [µg/mL] | MIC (Nakaseomyces glabratus) [µg/mL] | MIC (Lomentospora prolificans) [µg/mL] | MIC (Scedosporium boydii) [µg/mL]
1 | CCCCCCCCCCCCC[C@@H]1CC(=O)N[C@@H]([C@@H](C)O)C(=O)N[C@H](C)C(=O)N[C@@H](Cc2ccc(O)cc2)C(=O)N[C@@H](C(C)C)C(=O)N2C[C@H](O)C[C@H]2C(=O)N[C@@H]([C@@H](C)O)C(=O)N[C@@H]([C@@H](C)O)C(=O)N2CC[C@H](O)[C@H]2C(=O)N[C@@H]([C@H](O)CC(N)=O)C(=O)NCC(=O)N[C@@H]([C@@H](C)O)C(=O)N[C@@H](CCCNC(=O)[C@H](CCCN)N(CCN)CCN)C(=O)O1 | 0.37 (≈ 0.213 µM) | 0.55 (≈ 0.317 µM) | 8.7 | 0.33 | 100 | 0.9 | – | – | – | – | – | – | – | –
2 | CCCCCCCCCCCCC[C@@H]1CC(=O)N[C@H]([C@@H](C)O)C(=O)N[C@H](C)C(=O)N[C@@H](Cc2ccc(O)cc2)C(=O)N[C@@H](C(C)C)C(=O)N2C[C@H](O)C[C@H]2C(=O)N[C@H]([C@@H](C)O)C(=O)N[C@@H]([C@@H](C)O)C(=O)N2CC[C@H](O)[C@H]2C(=O)N[C@@H]([C@H](O)CC(N)=O)C(=O)NCC(=O)N[C@H]([C@@H](C)O)C(=O)N[C@@H](CCCN)C(=O)O1 [FR-901469] ([d(aThr)][dA]YV[Hyp][d(aThr)]T[Pro(3S-OH)][Gln(3R-OH)]G[d(aThr)][Orn]; linker N-C via X1) | 0.07 (≈ 0.0456 µM) | 0.54 (≈ 0.352 µM) | > 15 | 0.22 | 10 | 8.5 | – | – | – | – | – | – | – | –
3 | CCCCCCCCCCCCC[C@@H]1CC(=O)N[C@@H]([C@@H](C)O)C(=O)N[C@H](C)C(=O)N[C@@H](Cc2ccc(O)cc2)C(=O)N[C@@H](C(C)C)C(=O)N2C[C@H](O)C[C@H]2C(=O)N[C@@H]([C@@H](C)O)C(=O)N[C@@H]([C@@H](C)O)C(=O)N2CC[C@H](O)[C@H]2C(=O)N[C@@H]([C@H](O)CC(N)=O)C(=O)NCC(=O)N[C@@H]([C@@H](C)O)C(=O)N[C@@H](CCCN(CCCN)C(=O)[C@H](N)CCCN)C(=O)O1 | 0.37 (≈ 0.217 µM) | 0.27 (≈ 0.158 µM) | 5.2 | 0.05 | 30 | 0.83 | – | – | – | – | – | – | – | –
4 | CCCCCCCCCCCCC[C@@H]1CC(=O)N[C@@H]([C@@H](C)O)C(=O)N[C@H](C)C(=O)N[C@@H](Cc2ccc(O)cc2)C(=O)N[C@@H](C(C)C)C(=O)N2C[C@H](O)C[C@H]2C(=O)N[C@@H]([C@@H](C)O)C(=O)N[C@@H]([C@@H](C)O)C(=O)N2CC[C@H](O)[C@H]2C(=O)N[C@@H]([C@H](O)CC(N)=O)C(=O)NCC(=O)N[C@@H]([C@@H](C)O)C(=O)N[C@@H](CCCN(CCN)C(=O)[C@H](CCCN)N(CCN)CCN)C(=O)O1 | 0.31 (≈ 0.174 µM) | 0.24 (≈ 0.135 µM) | 5.2 | 0.08 | 100 | 0.2 | 0.34 (≈ 0.191 µM) | 0.28 (≈ 0.158 µM) | 0.35 (≈ 0.197 µM) | 0.37 (≈ 0.208 µM) | 0.62 (≈ 0.349 µM) | 1.3 (≈ 0.732 µM) | 2.2 (≈ 1.24 µM) | 0.35 (≈ 0.197 µM)
5 | CCCCCCCCCCCCC[C@@H]1CC(=O)N[C@@H]([C@@H](C)O)C(=O)N[C@H](C)C(=O)N[C@@H](Cc2ccc(O)cc2)C(=O)N[C@@H](C(C)C)C(=O)N2C[C@H](O)C[C@H]2C(=O)N[C@@H]([C@@H](C)O)C(=O)N[C@@H]([C@@H](C)O)C(=O)N2CC[C@H](O)[C@H]2C(=O)N[C@@H]([C@H](O)CC(N)=O)C(=O)NCC(=O)N[C@@H]([C@@H](C)O)C(=O)N[C@@H](CCCNC(=O)[C@@H](CCCN)N(CCN)CCN)C(=O)O1 | 0.31 (≈ 0.179 µM) | 0.31 (≈ 0.179 µM) | 11.6 | 0.13 | 30 | 0.63 | 0.67 (≈ 0.386 µM) | 0.54 (≈ 0.311 µM) | 0.68 (≈ 0.392 µM) | 0.31 (≈ 0.179 µM) | 0.35 (≈ 0.202 µM) | 1.4 (≈ 0.807 µM) | – | –
6 | CCCCCCCCCCCCC[C@@H]1CC(=O)N[C@H]([C@@H](C)O)C(=O)N[C@H](C)C(=O)N[C@@H](Cc2ccc(O)cc2)C(=O)N[C@@H](C(C)C)C(=O)N2C[C@H](O)C[C@H]2C(=O)N[C@H]([C@@H](C)O)C(=O)N[C@@H]([C@@H](C)O)C(=O)N2CC[C@H](O)[C@H]2C(=O)N[C@@H]([C@H](O)CC(N)=O)C(=O)NCC(=O)N[C@H]([C@@H](C)O)C(=O)N[C@@H](CCCN(CCN)CCN)C(=O)O1 | 0.1 (≈ 0.0617 µM) | 0.42 (≈ 0.259 µM) | 13.3 | 0.05 | 10 | 1.4 | – | – | – | – | – | – | – | –
7 | CCCCCOc1ccc(-c2ccc(-c3ccc(C(=O)N[C@H]4C[C@@H](O)[C@@H](O)NC(=O)[C@@H]5[C@@H](O)[C@@H](C)CN5C(=O)[C@H]([C@@H](C)O)NC(=O)[C@H]([C@H](O)[C@@H](O)c5ccc(O)cc5)NC(=O)[C@@H]5C[C@@H](O)CN5C(=O)[C@H]([C@@H](C)O)NC4=O)cc3)cc2)cc1 ({pTerphenylCO(4''-OnC5H11)}-[Orn(4R-OH,5R-OH)]T[Hyp][hTyr(3S-OH,4S-OH)]T[Pro(3S-OH,4S-Me)]; lactam 1-C) [listing 1 of 2 here] | – | – | – | 0.22 | 1 | – | – | – | – | – | – | – | – | –
8 | CCCCCOc1ccc(-c2ccc(-c3ccc(C(=O)N[C@H]4C[C@@H](O)[C@@H](O)NC(=O)[C@@H]5[C@@H](O)[C@@H](C)CN5C(=O)[C@H]([C@@H](C)O)NC(=O)[C@H]([C@H](O)[C@@H](O)c5ccc(O)cc5)NC(=O)[C@@H]5C[C@@H](O)CN5C(=O)[C@H]([C@@H](C)O)NC4=O)cc3)cc2)cc1 ({pTerphenylCO(4''-OnC5H11)}-[Orn(4R-OH,5R-OH)]T[Hyp][hTyr(3S-OH,4S-OH)]T[Pro(3S-OH,4S-Me)]; lactam 1-C) [listing 2 of 2 here] | 0.014 (≈ 0.0123 µM) | 0.55 (≈ 0.482 µM) | – | – | – | – | – | – | – | – | – | – | – | –
9 | CCCCCOc1ccc(-c2ccc(-c3ccc(C(=O)N[C@@H]4C[C@@H](O)[C@@H](O)NC(=O)C5[C@@H](OC)[C@@H](OC)CN5C(=O)[C@H]([C@@H](C)O)NC(=O)[C@H]([C@H](O)[C@@H](O)c5ccc(O)cc5)NC(=O)[C@@H]5C[C@@H](O)CN5C(=O)[C@H]([C@@H](C)O)NC4=O)cc3)cc2)cc1 (stereo partly specified) | – | – | – | – | – | 18 | – | – | – | – | – | – | – | –
10 | CCCCCCCCCCCCC[C@@H]1CC(=O)N[C@H]([C@@H](C)O)C(=O)N[C@H](C)C(=O)N[C@@H](Cc2ccc(O)cc2)C(=O)N[C@@H](C(C)C)C(=O)N2C[C@H](O)C[C@H]2C(=O)N[C@H]([C@@H](C)O)C(=O)N[C@@H]([C@@H](C)O)C(=O)N2CC[C@H](O)[C@H]2C(=O)N[C@@H]([C@H](O)CC(N)=O)C(=O)NCC(=O)N[C@H]([C@@H](C)O)C(=O)N[C@@H](CCCN(CCCN)C(=O)[C@@H](CCCN)N(CCN)CCN)C(=O)O1 | 0.39 (≈ 0.218 µM) | 0.26 (≈ 0.145 µM) | 5.8 | 0.12 | 100 | 0.25 | 0.58 (≈ 0.324 µM) | 0.28 (≈ 0.156 µM) | 0.31 (≈ 0.173 µM) | 0.37 (≈ 0.207 µM) | 0.56 (≈ 0.313 µM) | 1.2 (≈ 0.67 µM) | 0.37 (≈ 0.207 µM) | 0.37 (≈ 0.207 µM)
11 | CCCCCCCCCCCCC[C@@H]1CC(=O)N[C@H]([C@@H](C)O)C(=O)N[C@H](C)C(=O)N[C@@H](Cc2ccc(O)cc2)C(=O)N[C@@H](C(C)C)C(=O)N2C[C@H](O)C[C@H]2C(=O)N[C@H]([C@@H](C)O)C(=O)N[C@@H]([C@@H](C)O)C(=O)N2CC[C@H](O)[C@H]2C(=O)N[C@@H]([C@H](O)CC(N)=O)C(=O)NCC(=O)N[C@H]([C@@H](C)O)C(=O)N[C@@H](CCCNC(=O)[C@H](N)CCCN)C(=O)O1 | 0.12 (≈ 0.0728 µM) | 0.33 (≈ 0.2 µM) | – | 0.1 | 30 | 3.6 | – | – | – | – | – | – | – | –
12 | CCCCCCCCCCCCC[C@@H]1CC(=O)N[C@@H]([C@@H](C)O)C(=O)N[C@H](C)C(=O)N[C@@H](Cc2ccc(O)cc2)C(=O)N[C@@H](C(C)C)C(=O)N2C[C@H](O)C[C@H]2C(=O)N[C@@H]([C@@H](C)O)C(=O)N[C@@H]([C@@H](C)O)C(=O)N2CC[C@H](O)[C@H]2C(=O)N[C@@H]([C@H](O)CC(N)=O)C(=O)NCC(=O)N[C@@H]([C@@H](C)O)C(=O)N[C@@H](CCCN(CCCN)C(=O)[C@@H](N)CCCN)C(=O)O1 | 0.47 (≈ 0.276 µM) | 0.27 (≈ 0.158 µM) | 8.7 | 0.07 | 30 | 0.89 | – | – | – | – | – | – | – | –
13 | CC[C@H](C)C[C@H](C)CCCCCCCCC(=O)N[C@H]1C[C@@H](O)[C@@H](NCCN)NC(=O)[C@@H]2[C@@H](O)CCN2C(=O)[C@H]([C@H](O)CCN)NC(=O)[C@H]([C@H](O)[C@@H](O)c2ccc(O)cc2)NC(=O)[C@@H]2C[C@@H](O)CN2C(=O)[C@H]([C@@H](C)O)NC1=O | – | – | – | – | – | 1.3 | – | – | – | – | – | – | – | –

— ChEMBL document CHEMBL1134059, “Synthesis and antifungal activities of novel 1,3-beta-D-glucan synthase inhibitors. Part 2” (Bioorg Med Chem Lett, 2001)
